Patent US11619628B2, “Device and determination system using same” (Osaka University, priority 2017, dated 2023)

How the values were obtained:
UnaG protein = UnaG protein (UniProtKB/Swiss-Prot: P0DM59.1, GenBank: AB763906.1); conditions: binding ability to indirect bilirubin; Kumagai et al., Cell 2013, 153, 1602-1611; read-out: dissociation constant; cited from earlier work
[1] = Room-temperature storage of lyophilized samples, bilirubin affinity re-measured; format: physicochemical; conditions: lyophilized sample stored at room temperature; FIG. 5
Procedure: 500 μL of the purified UnaG (CΔ0)-NLuc (NΔ1) fusion protein was added to a 15-mL Falcon tube and frozen with liquid nitrogen. Thereafter, a powder of the protein solution was obtained by a lyophilizer. The powder was stored at room temperature.
After the preparation of the lyophilized samples, in order to investigate how long the activity is maintained, the lyophilized samples that had been […] were stored at room temperature every few days, and the affinity for bilirubin was measured according to the method described in the above item 7.

Molecule	Kd (UnaG protein)	activity (affinity for bilirubin) after storage [1]
C=CC1=C(C)/C(=C/c2[nH]c(Cc3[nH]c(/C=C4\NC(=O)C(C)=C4C=C)c(C)c3CCC(=O)O)c(CCC(=O)O)c2C)NC1=O [bilirubin]	0.098 nM	
UnaG (CΔ0)-NLuc (NΔ1) fusion protein: Fusion of UnaG (CΔ0) and NLuc (NΔ1) at the KpnI site, linker GT; amino acid sequence SEQ ID NO: 12 (protein, UnaG(C 0)-NLuc(N 1)) GGSGMVEKFVGTWKIADSHNFGEYLKAIGAPKELSDGGDATTPTLYISQKDGDKMTVKIENGPPTFLDTQVKFKLGEEFDEFPSDRRKGVKSVVNLVGEKYVQKWDGKETTYVREIKDGKLVVTLTMGDVVAVRSYRRATEGTVFTLEDFVGDWRQTAGYNLDQVLEQGGVSSLFQNLGVSVTPIQRIVLSGENGLKIDIHVIIPYEGLSGDQMGQIEKIFKVVYPVDDHHFKVILHYGTLVIDGVTPNMIDYFGRPYEGIAVFDGKKITVTGTLWNGNKIIDERLINPDGSLLFRVTINGVTGWRLCERILA		activity was maintained
